Laboratory results taken from patent US20250257075A1, “MACROCYCLIC INHIBITORS OF KRAS FOR THE TREATMENT OF CANCER” (Hoffmann-La Roche Inc., priority 2022, published 2025).

Tests used:
[1] = tested on: phosphorylation of ERK, KRAS G12D in AGS cells; assay: pERK inhibition assay, G12D; format: cell-based, human; details: Homo sapiens, 4 hours of incubation
Experimental: (§1) This assay is to measure the ability of test compounds in inhibiting the phosphorylation of ERK, the downstream signaling of KRAS G12C in NCI-H358 cells, KRAS G12D in AGS cells, and KRAS G12V in SW620. NCI-H358 (ATCC-CRL5807) cells, AGS (ATCC-CRL-1739) cells, SW620 (ATCC-CCL-227) cells were all grown and maintained using RPMI-1640 medium (Thermo Fisher Scientific) with 10% fetal bovine serum and 1% penicillin/streptomycin. On the day prior to compound addition, cells were plated in tissue culture-treated 96 well plates (Corning-3699) at a density of 30,000 cell/well, 20,000 cell/well, 30,000 cell/well for NCI-H358, AGS and SW620 respectively, and allowed for attachment overnight. Diluted compounds were then added in a final concentration of 0.5% DMSO. After 4 hours of incubation, the medium was removed, 100 μL of 4% formaldehyde was added, and the assay plates were incubated at room temperature for 20 minutes. The plates were then washed once with phosphate buffered saline (PBS), and permeabilized with 100 μL of chilled methanol for 10 minutes. Non-specific antibody binding to the plates was blocked using 50 μL 1×BSA blocking buffer (Thermo-37520, 10-fold dilution by Phosphate-Buffered Saline Tween (PBST) for at least 1 hour at room temperature.
(§2) The amount of phosphor-ERK was determined using an antibody specific for phosphorylated form of ERK. Primary antibody (pERK, CST-4370, Cell Signaling Technology) was diluted 1:300 in blocking buffer, with 50 μL aliquoted to each well, and incubated overnight at 4° C. Cells was washed five times for 5 minutes with PBST. Secondary antibody (HRP-linked anti-rabbit IgG, CST-7074, Cell Signaling Technology) was diluted 1:1000 in blocking buffer, and 50 μL was added to each well and incubated 1-2 hrs at room temperature. Cells was washed 5 times for 5 minutes with PBST, 100 μL TMB ELISA substrate (abcam-ab171523) were added and gently shake for 20 minutes. 50 μL stop solution (abcam-ab171529) were added, and then read the signal (OD450) by EnVision.
(§3) IC50 was determined by fitting a 4-parameter sigmoidal concentration response model.

[2] = tested on: phosphorylation of ERK, KRAS G12C in NCI-H358 cells; assay: pERK inhibition assay, G12C; format: cell-based, human; details: Homo sapiens; NCI-H358, 4 hours of incubation
Experimental: as §1, §2, §3

[3] = tested on: phosphorylation of ERK, KRAS G12V in SW620; assay: pERK inhibition assay, G12V; format: cell-based, human; details: Homo sapiens, SW-620; SW620, 4 hours of incubation
Experimental: as §1, §2, §3

AGS cells (KRAS G12D) = assay: Cell viability assay, G12D; format: cell-based, human; details: Homo sapiens, 72 hrs, Cell Counting Kit-8
Experimental: (§4) The purpose of this cellular assay was to determine the effects of test compounds on the proliferation of human cancer cell lines NCI-H358 (ATCC-CRL5807) cells, AGS (ATCC-CRL-1739) cells, SW620 (ATCC-CCL-227) over a 3-day treatment period by quantifying the amount of NADPH present at endpoint using Cell Counting Kit-8.
(§5) Cells were seeded at 5,000 cells/well (NCI-H358), 2,000 cells/well (AGS) 2,000 cells/well (SW620) in 96-well assay plates (Corning-3699) and incubated overnight. On the day of the assay, diluted compounds were then added in a final concentration of 0.5% DMSO. After 72 hrs incubation, a tenth of the volume of cell counting kit 8 (Dnjindo-CK04) was added into each well. Read the signal (OD450 minus OD650) using EnVision after 2 hrs incubation. IC50 was determined by fitting a 4-parameter sigmoidal concentration response model.

SW620 cells (KRAS G12V) = assay: Cell viability assay, G12V; format: cell-based, human; details: Homo sapiens, SW-620; SW620, 72 hrs, Cell Counting Kit-8
Experimental: as §4, §5

[4] = tested on: NCI-H358 cells (KRAS G12C); assay: Cell viability assay, G12C; format: cell-based, human; details: Homo sapiens; NCI-H358, 72 hrs, Cell Counting Kit-8
Experimental: as §4, §5

KRAS G12C-BRAF complex = molecular target: T1, KRAS G12C-BRAF complex (Homo sapiens, UniProt P01116+P62937, G12C); assay: KRAS G12C-BRAF NanoBit assay in HEK293 cells; format: cell-based; details: HEK293 stable cell pool, 3 hours of incubation
T1 construct: expressed in transfected cells
T1 sequence (P01116 1-188 isoform P01116-2 G12C): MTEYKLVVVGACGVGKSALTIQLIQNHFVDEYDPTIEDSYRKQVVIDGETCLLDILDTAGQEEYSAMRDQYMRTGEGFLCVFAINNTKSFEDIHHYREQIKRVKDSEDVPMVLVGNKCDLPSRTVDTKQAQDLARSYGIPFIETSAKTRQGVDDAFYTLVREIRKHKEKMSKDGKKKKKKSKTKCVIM
T1 sequence (P62937 whole entry): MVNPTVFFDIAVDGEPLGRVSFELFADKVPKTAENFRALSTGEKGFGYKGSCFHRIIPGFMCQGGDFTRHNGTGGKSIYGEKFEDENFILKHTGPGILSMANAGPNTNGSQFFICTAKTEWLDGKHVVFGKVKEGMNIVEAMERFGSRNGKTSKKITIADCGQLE
Experimental: This assay is to measure the ability of tested compounds in disruption of the KRAS G12C-BRAF complex at the cellular level, we established the NanoBit cellular assay in mammalian HEK293 (ATCC) cells. HEK293 cells were grown and maintained using DMEM medium (Thermo Fisher Scientific) with 10% fetal bovine serum and 1% penicillin/streptomycin. Both KRAS G12C and BRAF RBD were cloned into the NanoBit vectors ([…] vectors system, Promega) with the orientations SmBit-KRAS G12C and BRAF RBD-LgBit, respectively, and co-transfected into HEK293 cells. Cells were then selected with 100 μg/mL Hygromycin B (10687010, Thermo Fisher) and Blasticidin (5 μg/mL) for 4 weeks to get the stable cell pool. On the day of the assay, 75 nL of compound solution was presented in a 384-well assay plate as a 16-point 3-fold dilution starting from a final concentration of 30 μM in DMSO. Then cells were seeded at 10,000 cells/25 μL/well in a 384-well plate. After 3 hours of incubation, 6 μL of volume of Nano-Glo® Live Cell Substrate (Promega) was added into each well. Monitor luminescence using ultra384 model in Envision at 20 minutes. Compounds that facilitate disruption of the KRAS G12C-BRAF RBD complex were identified as those eliciting a decrease of luminescence relative to DMSO control wells.

| IC50 [1] | IC50 [2] | IC50 [3] | IC50 (AGS cells (KRAS G12D)) | IC50 (SW620 cells (KRAS G12V)) | IC50 [4] | IC50 (KRAS G12C-BRAF complex) | SMILES |
| --- | --- | --- | --- | --- | --- | --- | --- |
| > 10 µM | 0.02 µM | 0.021 µM |  |  |  |  | CCn1c(-c2cc(N3CCN(CC(F)(F)F)CC3)cnc2[C@H](C)OC)c2c3cc(c(F)cc31)-c1csc(n1)C[C@H](NC(=O)[C@H](C(C)C)N(C)C(=O)N1CC(C#CC(F)(F)F)C1)C(=O)N1CCC[C@H](N1)C(=O)OCC(C)(C)C2 (atropisomer, axis not shown; (M)) [Example 15, N-[(1S)-1-[[(7S,13S)-21-ethyl-24-fluoro-(20M)-20-[2-[(1S)-1-methoxyethyl]-5-[4-(2,2,2-trifluoroethyl)piperazin-1-yl]-3-pyridyl]-17,17-dimethyl-8,14-dioxo-15-oxa-4-thia-9,21,27,28-tetrazapentacyclo[17.5.2.1^2,5.1^9,13.0^22,26]octacosa-1(25),2,5(28),19,22(26),23-hexaen-7-yl]carbamoyl]-2-methyl-propyl]-N-methyl-3-(3,3,3-trifluoroprop-1-ynyl)azetidine-1-carboxamide] |
| 0.172 µM | 0.013 µM | 0.078 µM | > 10 µM | 0.152 µM | 0.012 µM | 0.036 µM | CO[C@@H](C)c1ncc(N2CCOCC2)cc1-c1c2c3cc(c(F)cc3n1CC(F)(F)F)-c1csc(n1)C[C@H](NC(=O)[C@H](C(C)C)N(C)C(=O)[C@H]1C[C@@H](C#CC(F)(F)F)C1)C(=O)N1CCC[C@H](N1)C(=O)OCC(C)(C)C2 (atropisomer, axis not shown; (M)) [Example 22, cis-N-[(1S)-1-[[(7S,13S)-24-fluoro-(20M)-20-[2-[(1S)-1-methoxyethyl]-5-morpholino-3-pyridyl]-17,17-dimethyl-8,14-dioxo-21-(2,2,2-trifluoroethyl)-15-oxa-4-thia-9,21,27,28-tetrazapentacyclo[17.5.2.1^2,5.1^9,13.0^22,26]octacosa-1(25),2,5(28),19,22(26),23-hexaen-7-yl]carbamoyl]-2-methyl-propyl]-N-methyl-3-(3,3,3-trifluoroprop-1-ynyl)cyclobutanecarboxamide] |
| > 10 µM | 0.019 µM | 0.076 µM | 0.231 µM | 0.222 µM | 0.02 µM | 0.085 µM | CCn1c(-c2cc(N3CCOCC3)cnc2[C@H](C)OC)c2c3cc(c(F)cc31)-c1csc(n1)C[C@H](NC(=O)[C@H](C(C)C)N(C)C(=O)[C@H]1C[C@@H](C#Cc3nccc(C(F)(F)F)n3)C1)C(=O)N1CCC[C@H](N1)C(=O)OCC(C)(C)C2 (atropisomer, axis not shown; (M)) [Example 21, cis-N-[(1S)-1-[[(7S,13S)-21-ethyl-24-fluoro-(20M)-20-[2-[(1S)-1-methoxyethyl]-5-morpholino-3-pyridyl]-17,17-dimethyl-8,14-dioxo-15-oxa-4-thia-9,21,27,28-tetrazapentacyclo[17.5.2.1^2,5.1^9,13.0^22,26]octacosa-1(25),2,5(28),19,22(26),23-hexaen-7-yl]carbamoyl]-2-methyl-propyl]-N-methyl-3-[2-[4-(trifluoromethyl)pyrimidin-2-yl]ethynyl]cyclobutanecarboxamide] |

Continued, compound first:

| SMILES | IC50 [1] | IC50 [2] | IC50 [3] | IC50 (AGS cells (KRAS G12D)) | IC50 (SW620 cells (KRAS G12V)) | IC50 [4] | IC50 (KRAS G12C-BRAF complex) |
| --- | --- | --- | --- | --- | --- | --- | --- |
| CO[C@@H](C)c1ncc(N2CCN(CC(F)(F)F)CC2)cc1-c1c2c3cc(c(F)cc3n1CC(F)(F)F)-c1csc(n1)C[C@H](NC(=O)[C@H](C(C)C)N(C)C(=O)N1CC(C#CC(F)(F)F)C1)C(=O)N1CCC[C@H](N1)C(=O)OCC(C)(C)C2 (atropisomer, axis not shown; (M)) [Example 18, N-[(1S)-1-[[(7S,13S)-24-fluoro-(20M)-20-[2-[(1S)-1-methoxyethyl]-5-[4-(2,2,2-trifluoroethyl)piperazin-1-yl]-3-pyridyl]-17,17-dimethyl-8,14-dioxo-21-(2,2,2-trifluoroethyl)-15-oxa-4-thia-9,21,27,28-tetrazapentacyclo[17.5.2.1^2,5.1^9,13.0^22,26]octacosa-1(25),2,5(28),19,22(26),23-hexaen-7-yl]carbamoyl]-2-methyl-propyl]-N-methyl-3-(3,3,3-trifluoroprop-1-ynyl)azetidine-1-carboxamide] | > 10 µM | 0.051 µM | 0.048 µM | > 10 µM | > 10 µM | 0.006 µM | 0.24 µM |
| CCn1c(-c2cc(N3CCOCC3)cnc2[C@H](C)OC)c2c3cc(c(F)cc31)-c1csc(n1)C[C@H](NC(=O)[C@H](C(C)C)N(C)C(=O)N1CC(C#CC(F)(F)F)C1)C(=O)N1CCCC(N1)C(=O)OCC(C)(C)C2 (stereo partly drawn) [Example 20, N-[(1S)-1-[[(7S,13S)-21-ethyl-24-fluoro-(20M)-20-[2-[(1S)-1-methoxyethyl]-5-morpholino-3-pyridyl]-17,17-dimethyl-8,14-dioxo-15-oxa-4-thia-9,21,27,28-tetrazapentacyclo[17.5.2.1^2,5.1^9,13.0^22,26]octacosa-1(25),2,5(28),19,22(26),23-hexaen-7-yl]carbamoyl]-2-methyl-propyl]-N-methyl-3-(3,3,3-trifluoroprop-1-ynyl)azetidine-1-carboxamide] | 2.51 µM | 0.093 µM | 0.096 µM | > 10 µM | 0.119 µM | 0.025 µM | 0.084 µM |
| CO[C@@H](C)c1ncc(N2CCN(C)CC2)cc1-c1c2c3cc(c(F)cc3n1CC(F)(F)F)-c1csc(n1)C[C@H](NC(=O)[C@H](C(C)C)N(C)C(=O)[C@H]1C[C@@H](C#Cc3nccc(C(F)(F)F)n3)C1)C(=O)N1CCC[C@H](N1)C(=O)OCC(C)(C)C2 (atropisomer, axis not shown; (M)) [Example 16, cis-N-[(1S)-1-[[(7S,13S)-24-fluoro-(20M)-20-[2-[(1S)-1-methoxyethyl]-5-(4-methylpiperazin-1-yl)-3-pyridyl]-17,17-dimethyl-8,14-dioxo-21-(2,2,2-trifluoroethyl)-15-oxa-4-thia-9,21,27,28-tetrazapentacyclo[17.5.2.1^2,5.1^9,13.0^22,26]octacosa-1(25),2,5(28),19,22(26),23-hexaen-7-yl]carbamoyl]-2-methyl-propyl]-N-methyl-3-[2-[4-(trifluoromethyl)pyrimidin-2-yl]ethynyl]cyclobutanecarboxamide] | > 10 µM | 0.021 µM | 0.031 µM | 0.743 µM | 0.237 µM | 0.011 µM | 0.209 µM |
